From patent US20100273876A1, “ANTIBACTERIAL FORMULATION COMPRISING A DIALKYL SULPHOSUCCINATE AND A CARBANILIDE ANTIBACTERIAL AGENT” (priority 2007, published 2010)

How the values were obtained:
Strep. mutans ATCC 25175 [1] = experiment: MBC assay; format: cell-based, Streptococcus mutans
Method: The S. mutans was cultured and maintained on Wilkins-Chalgren Anaerobe Medium (agar and broth) at pH 7.0 supplemented with 1 g/L glucose; all cultures were incubated at 37° C. for 48 h in an atmosphere containing 5% CO2. This assay, normally carried out after an MIC assay, determines the rnininiurn concentration of a compound that is lethal to the micro-organism being tested. […] These samples were then individually sub-cultured on antibiotic-free agar medium, under the incubation conditions described above. Following incubation they were examined visually for microbial growth.

P. granulosum PRP-055 = experiment: Agar dilution MIC assay; format: cell-based, Propionibacterium granulosum; conditions: P. granulosum PRP-055 (resistance None)
Method: (§1) The propionibacteria were cultured and maintained on Wilkins-Chalgren Anaerobe Medium (agar and broth) at pH 6.0; all cultures were incubated anaerobically at 37° C. for 72 hours.
(§2) This is a standard international method for quantitatively assessing the antimicrobial activity of a compound in a solid medium. The test compound was prepared to 40× the highest concentration required (eg, 10 mg/ml for a final concentration of 250 μg/ml) and a series of doubling dilutions were performed in a suitable solvent. A set amount of these antimicrobial stock solutions was then added to molten agar medium (ca. 55° C.), mixed thoroughly, poured into sterile Petri dishes and allowed to cool/set.
(§3) A Multipoint™ Inoculator (AQS Manufacturing Ltd, UK) was used to inoculate the plates by spotting the inocula onto the surface of the agar, delivering approximately 1 to 2 μl per spot (yielding 10^5 CFU(colony forming units) per spot).
(§4) The plate(s) were then incubated under the conditions described above, following which they were examined visually for signs of bacterial growth. The MIC value was ascertained when there was a marked reduction in, or total loss of, growth on the test plate at the lowest concentration as compared to that of the growth on the control plate.
(§5) The assays were conducted in duplicate and included a positive control (culture medium, diluting solvent and inoculum).

P. granulosum PRP-006 = experiment: Agar dilution MIC assay; format: cell-based, Propionibacterium granulosum; conditions: P. granulosum PRP-006 (MLS)
Method: as §1, §2, §3, §4, §5

P. granulosum PRP-021 = experiment: Agar dilution MIC assay; format: cell-based, Propionibacterium granulosum; conditions: P. granulosum PRP-021 (MLS)
Method: as §1, §2, §3, §4, §5

P. granulosum PRP-044 = experiment: Agar dilution MIC assay; format: cell-based, Propionibacterium granulosum; conditions: P. granulosum PRP-044 (MLS)
Method: as §1, §2, §3, §4, §5

P. granulosum PRP-043 = experiment: Agar dilution MIC assay; format: cell-based, Propionibacterium granulosum; conditions: P. granulosum PRP-043 (MLS)
Method: as §1, §2, §3, §4, §5

P. granulosum NCTC 11865 = experiment: Agar dilution MIC assay; format: cell-based, Propionibacterium granulosum; conditions: P. granulosum NCTC 11865 (resistance None)
Method: as §1, §2, §3, §4, §5

P. granulosum PRP-005 = experiment: Agar dilution MIC assay; format: cell-based, Propionibacterium granulosum; conditions: P. granulosum PRP-005 (MLSK)
Method: as §1, §2, §3, §4, §5

P. granulosum PRP-019 = experiment: Agar dilution MIC assay; format: cell-based, Propionibacterium granulosum; conditions: P. granulosum PRP-019 (MLSK)
Method: as §1, §2, §3, §4, §5

Strep. mutans ATCC 25175 [2] = experiment: Biofilm disruption assay on hydroxyapatite discs; format: cell-based, Streptococcus mutans; conditions: Strep. mutans ATCC 25175 biofilm, DOSS 1.0% (w/v), CHX 0.2% (w/v)
Method: This assay was designed to determine quantitatively the relative potency of a test compound to disrupt (effectively kill) biofilms formed by a test organism on hydroxyapatite (HA) discs.
Biofilms were formed on sterile dense ceramic HA discs 7 mm diameter x 1.8 mm thick (Clarkson Chromatography) by placing the discs in the appropriate liquid media (as described above) inoculated with the test organism (0.5×10^8 cfu/ml). The HA discs were then incubated at 37° C. for ˜48 h in a 5% CO2 atmosphere (for Strep. mutans ATCC 25175) or ˜96 h under anaerobic conditions (for Por. gingivalis 381). Following the incubation period the supernatant was removed from the wells containing the HA discs and the discs were washed×3 with fresh media to ensure all planktonic cells were removed. The HA discs were then transferred to sterile bijoux bottles containing 1 ml of phosphate buffered saline (PBS) plus test compound(s) at the required concentration. After a set time period (usually 2 and/or 5 min), the HA disc was transferred to another sterile bijoux containing 1 ml of fresh growth media. Adherent cells were then harvested by vigorous vortexing for 2 minutes. A sample was then taken, serially diluted 10-fold in fresh growth media and inoculated onto agar plates in triplicate. Untreated HA discs, and HA discs added to PBS containing only the solvents used to dissolve the test compound(s), acted as controls.
The plates were then incubated as described above and subsequently examined visually for growth. Colonies were counted at an appropriate serial dilution (5-50 individual colonies visible) with the aid of a colony counter. These measurements were then converted to numbers of colony forming units (cfu), using the formula: cfu/ml=number of colonies×serial dilution factor×100 (as only a 10 μl sample was taken).
These cfu values were then converted into log10 values and plotted graphically against time of sample removal.
At each time point, samples were assessed in triplicate; the final cfu/ml value was an average (mean) of the three readings.
Biofilm disruption assays, as described above, were carried out using DOSS as the test compound and chlorhexidine (CHX) as a positive control. For these experiments, the DOSS was tested at 0.5% w/v against Por. gingivalis and 1% w/v against Strep. mutans. The ahlorhexidine was tested at a concentration of 0.2% w/v against both micro-organisms. The DOSS was dissolved in ethanol and the chlorhexidine in distilled water. All the experiments were conducted in triplicate.

C. striatum NCTC 764 = experiment: MBC assay; format: cell-based, Corynebacterium striatum
Method: Several Corynebacterium test species were also used in this study, namely C. mucifaciens ATCC 700355, C. striatum NCTC 764, C. xerosis NCTC 11861 and C. jeikeium NCTC 11915. These Gram-positive pathogens are closely related to organisms (aerobic diphtheroids of the genus Corynebacterium) that cause body odour. C. mucifaciens and C. striatum were cultured and maintained on Mueller-Hinton Medium (agar and broth) and were incubated aerobically at 37° C. for 24 hours. C. xerosis and C. jeikeium were cultured and maintained on Mueller-Hinton Medium containing 5% (v/v) lysed horse blood (agar and broth) and were incubated aerobically at 37° C. for 72 hours. This assay, normally carried out after an MIC assay, determines the rnininiurn concentration of a compound that is lethal to the micro-organism being tested. […] These samples were then individually sub-cultured on antibiotic-free agar medium, under the incubation conditions described above. Following incubation they were examined visually for microbial growth.

For dioctyl sodium sulphosuccinate [DOSS], which MBC (Strep. mutans ATCC 25175 [1]) is on record?
Its MBC is 15.6 µg/mL.

And the MIC/MBC ratio (Strep. mutans ATCC 25175 [1])?
Its MIC/MBC ratio is 1.

What about the MIC (P. granulosum PRP-055) of the same substance?
Its MIC is 31.25 µg/mL.

What about the MIC (P. granulosum PRP-006) of the same substance?
The MIC was 31.25 µg/mL.

What about the MIC (P. granulosum PRP-021) of the same substance?
Its MIC is 31.25 µg/mL.

What about the MIC (P. granulosum PRP-044) of the same substance?
The MIC was 31.25 µg/mL.

What about the MIC (P. granulosum PRP-043) of the same substance?
Its MIC is 31.25 µg/mL.

What about the MIC (P. granulosum NCTC 11865) of the same substance?
Its MIC is 31.25 µg/mL.

What about the MIC (P. granulosum PRP-005) of the same substance?
The MIC was 15.6 µg/mL.

What about the MIC (P. granulosum PRP-019) of the same substance?
The MIC was 15.6 µg/mL.

And the Viable cell counts (Strep. mutans ATCC 25175 [2]; 0 min)?
The Viable cell counts was 6.56 log10 cfu/ml.

And the Viable cell counts (Strep. mutans ATCC 25175 [2]; 2 min)?
The Viable cell counts was 2.87 log10 cfu/ml.

What about the Viable cell counts (Strep. mutans ATCC 25175 [2]; 5 min) of the same substance?
Its Viable cell counts is 3.36 log10 cfu/ml.

And the MBC (C. striatum NCTC 764)?
The MBC was 62.5 µg/mL.

And the MIC/MBC ratio (C. striatum NCTC 764)?
The MIC/MBC ratio was 1.
